The source of these data is patent US9422240B2, “Partially saturated nitrogen-containing heterocyclic compound” (TAISHO PHARMACEUTICAL CO., LTD, priority 2012, dated 2016).

Assay [1] deals with T1, human PHD2 (Homo sapiens (Human), UniProt Q9GZT9). Put plainly: Test 1: human PHD2 inhibitory activity, [14C]-2-oxoglutarate to [14C]-succinic acid radiometric assay with HIF-1α peptide. Conditions: read-out: Percent inhibition (% at 1 μM). Type of assay: biochemical. An outline of the steps:
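Activity was measured by radiometric counting of [14C]-succinic acid formed during prolyl hydroxylation of a 19-mer HIF-1α peptide, after DNPH removal of residual [14C]-2-oxoglutarate. Baculovirus-expressed human PHD2 lysate (4 μg/well) reacted for 15 min at 37° C. Substrate-free and compound-free wells served as reference points for inhibition.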

Assay [2] deals with T1, human PHD2. The assay is described as follows: Test 2: human PHD2 inhibitory activity, fluorescence polarization assay of HIF-1α peptide proline hydroxylation. Type of assay: biochemical. As to conditions: read-out: Percent inhibition (% at 1 μM). An outline of the steps: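 A 19-mer HIF-1α peptide served as substrate, with the reaction started by 40 ng/well human PHD2 (cell lysate of NM_022051-transfected cells) and run 20 min at 30° C. before EDTA stop. Hydroxylated product bound anti-HIF-OH antibody, read by fluorescence polarization versus no-compound control.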

[3] abbreviates: test compound's concentration 1 μM, Test 1, [14C]-2-oxoglutarate radiometric assay.
The mark [4] stands for this setting: test compound's concentration 1 μM, Test 2, fluorescence polarization assay.

Structures can show the parent of a compound that is named as a salt.

T1 sequence (Q9GZT9 whole entry): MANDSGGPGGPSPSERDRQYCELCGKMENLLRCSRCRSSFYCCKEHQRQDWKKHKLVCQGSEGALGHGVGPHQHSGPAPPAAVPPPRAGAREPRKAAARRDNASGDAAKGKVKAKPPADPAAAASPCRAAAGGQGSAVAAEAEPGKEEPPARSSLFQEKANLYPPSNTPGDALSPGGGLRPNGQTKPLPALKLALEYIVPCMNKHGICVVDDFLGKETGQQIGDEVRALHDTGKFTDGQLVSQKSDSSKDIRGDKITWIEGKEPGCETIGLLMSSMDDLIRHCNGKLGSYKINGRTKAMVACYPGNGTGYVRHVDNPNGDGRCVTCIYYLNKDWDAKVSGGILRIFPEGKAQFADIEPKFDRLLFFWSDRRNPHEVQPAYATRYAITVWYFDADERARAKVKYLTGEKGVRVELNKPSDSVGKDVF

Regarding `O=C(O)CNC(=O)C1=C(O)CCN(C2CCCCC2)C1=O` [Ex. 1-307], the values for the inhibition at 1 µM on human PHD2 [1] (setting [3]) and on human PHD2 [2] (setting [4]) were 51% and 60%, respectively.
Turning to `Cc1ccc(-c2ccc(CN3CCC(O)=C(C(=O)NCC(=O)O)C3=O)cc2)cc1` [Ex. 2-1, N-({4-Hydroxy-1-[(4′-methylbiphenyl-4-yl)methyl]-2-oxo-1,2,5,6-tetrahydropyridin-3-yl}carbonyl)glycine], the values for the inhibition at 1 µM at human PHD2 [1] (setting [3]) and at human PHD2 [2] (setting [4]) were 93% and 88%, respectively.
With `Cn1cc(-c2ccc(CN3CCC(O)=C(C(=O)NCC(=O)O)C3=O)cc2)cn1` [Ex. 2-6], the inhibition at 1 µM on human PHD2 [1] (setting [3]) came out at 68%; at human PHD2 [2] (setting [4]), 80%.
Regarding `O=C(O)CNC(=O)C1=C(O)CCN(Cc2ccc(-c3cccnc3)cc2)C1=O` [Ex. 2-7], the inhibition at 1 µM at human PHD2 [1] (setting [3]) amounted to 88%; at human PHD2 [2] (setting [4]), 91%.
In the same order, the values of `O=C(O)CNC(=O)C1=C(O)CCN(Cc2ccc(-c3cnoc3)cc2)C1=O` [Ex. 2-8] are 87% and 88%.
For `CC(C)c1cccc(-c2ccc(CN3CCC(O)=C(C(=O)NCC(=O)O)C3=O)cc2)c1` [Ex. 2-9], the values for the inhibition at 1 µM on human PHD2 [1] (setting [3]) and at human PHD2 [2] (setting [4]) were 78% and 82%, respectively.
On to `O=C(O)CNC(=O)C1=C(O)CCN(Cc2ccc(-c3ccc(-c4ccccc4)cc3)cc2)C1=O` [Ex. 2-10], for which the inhibition at 1 µM was determined as 84% at human PHD2 [1] (setting [3]) and 79% on human PHD2 [2] (setting [4]).
Regarding `O=C(O)CNC(=O)C1=C(O)CCN(Cc2ccc(-c3ccc(Cl)cc3)cc2)C1=O` [Ex. 2-11], the inhibition at 1 µM at human PHD2 [1] (setting [3]) amounted to 93%; at human PHD2 [2] (setting [4]), 91%.
With `COc1ccc(-c2ccc(CN3CCC(O)=C(C(=O)NCC(=O)O)C3=O)cc2)cc1` [Ex. 2-12], the inhibition at 1 µM at human PHD2 [1] (setting [3]) worked out at 93%; on human PHD2 [2] (setting [4]) it was 91%.
With `COc1ccc(-c2ccc(CN3CCC(O)=C(C(=O)NCC(=O)O)C3=O)cc2)cn1` [Ex. 2-13], the figures for the inhibition at 1 µM on human PHD2 [1] (setting [3]) and at human PHD2 [2] (setting [4]) were 92% and 87%, respectively.
For the molecule `N#Cc1ccc(-c2ccc(CN3CCC(O)=C(C(=O)NCC(=O)O)C3=O)cc2)cc1` [Ex. 2-14], the inhibition at 1 µM at human PHD2 [1] (setting [3]) worked out at 98%; at human PHD2 [2] (setting [4]), 93%.
For `CN(C)S(=O)(=O)c1ccc(-c2ccc(CN3CCC(O)=C(C(=O)NCC(=O)O)C3=O)cc2)cc1` [Ex. 2-15], the inhibition at 1 µM turned out to be 97% at human PHD2 [1] (setting [3]) and 90% on human PHD2 [2] (setting [4]).
Consider `CC(=O)c1ccc(-c2ccc(CN3CCC(O)=C(C(=O)NCC(=O)O)C3=O)cc2)cc1` [Ex. 2-16], for which the inhibition at 1 µM on human PHD2 [1] (setting [3]) amounted to 102%; at human PHD2 [2] (setting [4]), 93%.
Turning to `Cn1nccc1-c1ccc(CN2CCC(O)=C(C(=O)NCC(=O)O)C2=O)cc1` [Ex. 2-17], the inhibition at 1 µM on human PHD2 [1] (setting [3]) turned out to be 94%; on human PHD2 [2] (setting [4]), 87%.
As to `O=C(O)CNC(=O)C1=C(O)CCN(Cc2ccc(-c3ccsc3)cc2)C1=O` [Ex. 2-18], the inhibition at 1 µM at human PHD2 [1] (setting [3]) worked out at 98%; at human PHD2 [2] (setting [4]), 91%.
On to `O=C(O)CNC(=O)C1=C(O)CCN(Cc2ccc(-c3ccncc3)cc2)C1=O` [Ex. 2-19], for which the figures for the inhibition at 1 µM at human PHD2 [1] (setting [3]) and on human PHD2 [2] (setting [4]) were 96% and 93%, respectively.
For `Cc1nc(C)c(-c2ccc(CN3CCC(O)=C(C(=O)NCC(=O)O)C3=O)cc2)s1` [Ex. 2-20], the results for the inhibition at 1 µM on human PHD2 [1] (setting [3]) and on human PHD2 [2] (setting [4]) were 102% and 93%, respectively.
On the same counts, the results for `O=C(O)CNC(=O)C1=C(O)CCN(Cc2ccc(-c3ccc(C(F)(F)F)nc3)cc2)C1=O` [Ex. 2-21] are 88% and 93%.
For the molecule `O=C(O)CNC(=O)C1=C(O)CCN(Cc2ccc(-c3cccc(Cl)c3)cc2)C1=O` [Ex. 2-22], the inhibition at 1 µM on human PHD2 [1] (setting [3]) is 95%; on human PHD2 [2] (setting [4]) it was 94%.
In the case of `O=C(O)CNC(=O)C1=C(O)CCN(Cc2ccc(-c3ccc(Cl)c(Cl)c3)cc2)C1=O` [Ex. 2-23], the inhibition at 1 µM is 88% on human PHD2 [1] (setting [3]) and 96% at human PHD2 [2] (setting [4]).
In the same order, the values of `O=C(O)CNC(=O)C1=C(O)CCN(Cc2ccc(-c3ccc(C(F)(F)F)cc3)cc2)C1=O` [Ex. 2-24] are 91% and 93%.
As to `Cc1cccc(-c2ccc(CN3CCC(O)=C(C(=O)NCC(=O)O)C3=O)cc2)c1` [Ex. 2-25], the inhibition at 1 µM at human PHD2 [1] (setting [3]) came out at 92%; on human PHD2 [2] (setting [4]), 96%.
As to `COc1cccc(-c2ccc(CN3CCC(O)=C(C(=O)NCC(=O)O)C3=O)cc2)c1` [Ex. 2-26], the inhibition at 1 µM worked out at 90% on human PHD2 [1] (setting [3]) and 95% at human PHD2 [2] (setting [4]).
In the case of `O=C(O)CNC(=O)C1=C(O)CCN(Cc2ccc(-c3ccc4ncccc4c3)cc2)C1=O` [Ex. 2-27], the inhibition at 1 µM on human PHD2 [1] (setting [3]) amounted to 100%; at human PHD2 [2] (setting [4]), 96%.
Take `O=C(O)CNC(=O)C1=C(O)CCN(Cc2ccc(-c3ccc(F)cc3)cc2)C1=O` [Ex. 2-28]: the inhibition at 1 µM on human PHD2 [1] (setting [3]) worked out at 90%; on human PHD2 [2] (setting [4]) it was 97%.
Regarding `O=C(O)CNC(=O)C1=C(O)CCN(Cc2ccc(-c3ccc(F)cc3)c(F)c2)C1=O` [Ex. 2-29], the inhibition at 1 µM worked out at 101% on human PHD2 [1] (setting [3]) and 95% on human PHD2 [2] (setting [4]).
On the same counts, the results for `O=C(O)CNC(=O)C1=C(O)CCN(Cc2ccc(-c3ccc(O)cc3)cc2)C1=O` [Ex. 2-30] are 103% and 99%.
Turning to `O=C(O)CNC(=O)C1=C(O)CCN(Cc2ccc(C3CCCC3)cc2)C1=O` [Ex. 3-1, N-{[1-(4-Cyclopentylbenzyl)-4-hydroxy-2-oxo-1,2,5,6-tetrahydropyridin-3-yl]carbonyl}glycine sodium salt], the inhibition at 1 µM at human PHD2 [1] was 102%; at human PHD2 [2], 95%.
In the same order, the values of `O=C(O)CNC(=O)C1=C(O)CCN(Cc2ccc(C3CC3)cc2)C1=O` [Ex. 3-2, N-{[1-(4-Cyclopropylbenzyl)-4-hydroxy-2-oxo-1,2,5,6-tetrahydropyridin-3-yl]carbonyl}glycine sodium salt] are 87% and 90%.
In the case of `COc1ccc(CN2CCC(O)=C(C(=O)NCC(=O)O)C2=O)c(OC)c1` [Ex. 4-1, N-{[1-(2,4-Dimethoxybenzyl)-4-hydroxy-2-oxo-1,2,5,6-tetrahydropyridin-3-yl]carbonyl}glycine], the inhibition at 1 µM came out at 58% on human PHD2 [1] (setting [3]) and 67% at human PHD2 [2] (setting [4]).
As to `C=CCOc1ccc(CN2CCC(O)=C(C(=O)NCC(=O)O)C2=O)cc1` [Ex. 4-2, N-({4-Hydroxy-2-oxo-1-[4-(prop-2-en-1-yloxy)benzyl]-1,2,5,6-tetrahydropyridin-3-yl}carbonyl)glycine], the inhibition at 1 µM on human PHD2 [1] (setting [3]) was found to be 77%; on human PHD2 [2] (setting [4]), 81%.
